Tests used:
[1] = tested on: Rotavirus; test: Inhibitory activity against bovine NCDV Rotavirus strain; assay type: functional, organism-based
[2] = tested on: Rotavirus; test: Inhibitory activity against human Wa Rotavirus strain; assay type: functional, organism-based

Row | IC50 [1] | IC50 [2] | SMILES
1 | > 25 mM | > 25 mM | CCC(SC[C@@H]1O[C@@H](OC)[C@@H](O)[C@@H](O)[C@@H]1O)C(=O)O (stereo partly specified)
2 | > 25 mM | > 25 mM | CO[C@@H]1O[C@@H](CSC(CCO)C(=O)O)[C@@H](O)[C@H](O)[C@@H]1O (stereo partly specified)
3 | > 25 mM | > 25 mM | CO[C@@H]1O[C@@H](CSC(C(=O)O)c2ccccc2)[C@@H](O)[C@H](O)[C@@H]1O (stereo partly specified)
4 | 25 mM | > 25 mM | CCC(SC[C@@H]1O[C@@H](OC)[C@@H](O)[C@@H](O)[C@H]1O)C(=O)O (stereo partly specified)
5 | > 25 mM | > 25 mM | CO[C@@H]1O[C@@H](CSC(C(=O)O)c2ccccc2)[C@H](O)[C@H](O)[C@@H]1O (stereo partly specified)
6 | > 25 mM | > 25 mM | CO[C@@H]1O[C@@H](CSC(CCO)C(=O)O)[C@H](O)[C@H](O)[C@@H]1O (stereo partly specified)
7 |  | > 25 mM | COC1OC(CSC2(C(=O)O)CC(O)C(NC(C)=O)C([C@H](O)[C@H](O)CO)O2)C(O)C(O)C1O (stereo partly specified)
8 | > 25 mM | > 25 mM | COC1OC(CSC(C)C(=O)O)C(O)C(O)C1O (stereo unspecified)
9 | 6.25 mM | 6.25 mM | CCC(SC[C@@H]1O[C@@H](O[C@H]2[C@H](O)[C@H](O)[C@H](OC)O[C@H]2CO)[C@@H](O)[C@@H](O)[C@H]1O)C(=O)O (stereo partly specified)
10 | 12.5 mM | 25 mM | CO[C@@H]1O[C@@H](CO)[C@@H](O[C@@H]2O[C@@H](CSC(C(=O)O)c3ccccc3)[C@H](O)[C@H](O)[C@@H]2O)[C@H](O)[C@@H]1O (stereo partly specified)
11 | 12.5 mM | 6.25 mM | CO[C@@H]1O[C@@H](CO)[C@@H](O[C@@H]2O[C@@H](CSC(C)C(=O)O)[C@H](O)[C@H](O)[C@@H]2O)[C@H](O)[C@@H]1O (stereo partly specified)
